Assays:
[1] = tested on: patient positive for anti-NR1 NMDAR antibodies; test: Quality of Life Scale (QLS), D-serine clinical trial; format: in vivo, human; settings: for QLS Symptoms/side-effects: week 0 score 15.63; for QLS Motivation/energy: week 0 score 42.86; for QLS Psychosocial: week 0 score 60
From the text: (§1) Out of the seventeen patients that entered the study, the serum of one patient was strongly positive at both serum sample dilutions for the presence of both IgG and IgM classes of anti-NR1 NMDAR antibodies. The patient was a single person having a diagnosis of schizophrenia according to DSM-IV-R criteria (American Psychiatric Association, 2000 Diagnostic and Statistical Manual of Mental Disorders-(DSM-IV-TR), 4th edition. American Psychiatric Association Washington D.C. (Text Revision)). There was no history of mental disorder in the patient's family. The patient had completed post-high school studies and had worked as a secretary. After a period of continuous headaches, for which no organic basis had been found, they had abruptly developed an acute psychosis characterized by grandiose and paranoid delusions, mystical thinking, […] affect and agitation, They had been hospitalized in a psychiatric hospital and underwent treatment with antipsychotic drugs and electroconvulsive therapy with only partial response. The patient had never returned to their previous functional and except for short attempts at living in the community, has been hospitalized ever since. They have been refractory to treatment with various classes of antipsychotic drugs, was not diagnosed with any medical or neurological disorder and was maintained on sulpiride 50 mg/day, citalopram 40 mg/day, lorazepam 1 mg/day and promethazine 50 mg/day. […] DSR is a naturally occurring amino acid that acts in vivo as an obligatory co-agonist at the glycine modulatory site associated with NMDAR. […] Both acute and chronic administration of 1-2 g DSR in humans is known to result in ≥100 times increases in DSR serum levels (Kantrowitz et al., 2010, Schizophr Res121:125-30; Heresco-Levy et al., 2005, Biol Psychiatry 57:577-85). The trial consisted of two periods, starting with a 2 week lead-in/stabilization period (-2-0) following which the patient was entered in the second period of the study which consisted of a 6 week (0-6), open-label, fixed dose therapy phase. During this phase, the patient received adjuvant treatment with DSR, whose dose was increased from 1500 mg/day (week 1) to 2000 mg/day (weeks 2 and 3) to 3000 mg/day (weeks 4 and 5) and to 4000 mg/day (week 6). The doses of the ongoing medication received by the patient remained fixed throughout the study and no changes in medication were performed. The assessment procedures used in the study included clinical and neurocognitive examinations. Motor and psychiatric symptoms as well as side-effects were rated biweekly throughout the study. The following instruments were used: 1) Positive and Negative Syndrome Scale (PANSS) (Kay et al., 1987, Positive and Negative Syndrome Scale (PANSS) rating manual. San Rafael California: Social and Behavioral Sciences Documents); 2) Quality of Life Scale (QLS) (Wilkinson et al., 2000, Self-report quality of life measure for people with schizophrenia: the SQLS. Br J Psychiatry 177:42-6); 3) Abnormal Involuntary Movement Scale (AIMS) (Guy, 1976, ECDEU Assessment Manual for Psychopharmacology-Revised. Rockville, Md.: US Dept. of Health, Education and Welfare); 4) Simpson Angus Scale for Extrapyramidal Symptoms (SAS) (Simpson and Angus, 1970, Acta Psychiatr Scand Suppl. 212:11-9); and 5) Udvalg for […] Undersogelser (UKU) Side Effect Rating Scale (Lingjaerde, et al., 1987 Acta Psychiatr Scand Suppl 334:1-100). In conjunction with UKU ratings, patient's vital signs and body weight were monitored throughout the study.

[2] = tested on: Rodent neuron cell cultures treated with anti-NMDAR antibodies; test: Example 3: NMDAR localization in neuron cultures treated with anti-NMDAR antibodies; format: cell-based; settings: D-Serine 50-200 uM; histological measurements
Experimental: Rodent neuron cell cultures are treated with anti-NMDAR antibodies as described in Hughes E G et al., J Neurosci 2012 30(17):5866-75. […] The determination of receptors localization and other relevant measures is based on histological measurements.
Immunohistochemical methods will be applied to document (a) localization of NMDAR and NR1 and NR2 subunits; (b) loss of oligodendrocytes; (c) changes in astrocytes (S100beta) and microglia (cd11b), (d) expression of neurotrophic factors: brain derived neurotrophic factor (BDNF), nerve growth factor (NGF) and ciliary neurotrophic factor (CNTF); (e) markers of neurogenesis—doublecortin (17) and apoptosis—caspase3 (9). Quantification of histological measurements is based on images in several cortical subregions, striatum, […], hippocampus, and cerebellum.

[3] = tested on: patient positive for anti-NR1 NMDAR antibodies; test: Positive and Negative Syndrome Scale (PANSS), D-serine clinical trial; format: in vivo, human; settings: for PANSS Negative: week 0 score 18; for PANSS Positive: week 0 score 24; for PANSS General: week 0 score 55; for PANSS Total: week 0 score 97
From the text: as §1

With `N[C@H](CO)C(=O)O` [D-serine] the “Quality of life of the patient” value ([1]; during treatment with DSR) was “improved considerably”, the “Reduction in reported symptoms and side effects (QLS)” value ([1]; end of the 6 week treatment period vs baseline) was ~3 times and the “QLS Symptoms/side-effects” value ([1]; study week 2) was 9.38. The “QLS Motivation/energy” value ([1]; study week 2) was 42.86, the “QLS Psychosocial” value ([1]; study week 2 of adjuvant D-serine) was 55 and the “QLS Symptoms/side-effects” value ([1]; study week 4) was 9.38. For the same compound, the “QLS Motivation/energy” value ([1]; study week 4) was 42.86, the “QLS Psychosocial” value ([1]; study week 4 of adjuvant D-serine) was 50 and the “QLS Symptoms/side-effects” value ([1]; study week 6) was 3.13. For the same compound, the “QLS Motivation/energy” value ([1]; study week 6) was 42.86, the “QLS Psychosocial” value ([1]; study week 6 of adjuvant D-serine) was 38.33 and the “Effect on NMDAR intracellular localization” value [2] was “reversing receptor intracellular localization”. For the same compound, the “PANSS positive, negative and general psychopathology symptom domains” value ([3]; during treatment with DSR) was “improved”, the “Total PANSS score lower by the end of the study” value ([3]; end of study vs baseline total score of 97) was 17% and the “PANSS Negative” value ([3]; study week 2) was 19. For the same compound, the “PANSS Positive” value ([3]; study week 2) was 21, the “PANSS General” value ([3]; study week 2) was 54 and the “PANSS Total” value ([3]; study week 2) was 96. The “PANSS Negative” value ([3]; study week 4) was 17, the “PANSS Positive” value ([3]; study week 4) was 21 and the “PANSS General” value ([3]; study week 4) was 51. The “PANSS Total” value ([3]; study week 4) was 89, the “PANSS Negative” value ([3]; study week 6) was 16 and the “PANSS Positive” value ([3]; study week 6) was 19. For the same compound, the “PANSS General” value ([3]; study week 6) was 45 and the “PANSS Total” value ([3]; study week 6) was 80.

Reference: US11213522B2, “Autoimmune-induced glutamatergic receptor dysfunction methods and treatments” (SARAH HERZOG MEMORIAL HOSPITAL EZRAT NASHIM ASSOCIATION, priority 2013, dated 2022)
